We go through 55 compounds from patent US9029080B2, “Screening assay for insecticides” (priority 2008, dated 2015).

pIC50: −log10 of the molar value. Where two headings read alike, the source gives them in different places.

In the test the target is T1, ShaI/KChIP (Drosophila melanogaster, UniProt P17971).
T1 construct: expressed in transfected cells; subclone 18-13-20
T1 sequence (P17971 with tags, fused parts or gaps isoform P17971-1): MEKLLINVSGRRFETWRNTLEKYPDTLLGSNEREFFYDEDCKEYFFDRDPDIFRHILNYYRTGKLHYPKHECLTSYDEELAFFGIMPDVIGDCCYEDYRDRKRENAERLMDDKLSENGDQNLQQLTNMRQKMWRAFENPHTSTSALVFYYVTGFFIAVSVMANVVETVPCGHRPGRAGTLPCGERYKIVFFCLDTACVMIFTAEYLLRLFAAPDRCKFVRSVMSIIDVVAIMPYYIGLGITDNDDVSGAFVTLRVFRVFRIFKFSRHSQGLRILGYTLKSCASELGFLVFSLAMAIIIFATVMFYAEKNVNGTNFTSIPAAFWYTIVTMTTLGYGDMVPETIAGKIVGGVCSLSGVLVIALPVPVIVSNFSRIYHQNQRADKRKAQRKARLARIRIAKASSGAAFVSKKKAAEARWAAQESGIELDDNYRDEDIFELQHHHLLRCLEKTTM
The test is described as follows: ShaI/KChIP FLIPR membrane potential assay, KCl depolarization. The class given is cell-based. The note with it: for pIC50: ShaI/KChIP 20 cells, three consecutive days. As to the method: This assay uses two fluid additions to permit the detection of activators and antagonists in a single experiment (FIG. 17). In screening, test compounds are added in the first addition and allowed to incubate for three minutes. An activating dose of KCl is then introduced in the second addition and the fluorescence read for an additional three minutes. Controls are run for both additions.
Cells were dispensed in a 50 μl volume containing 7,500 cells into 384-well TC clear/black assay plates (Greiner 781091) using a Multidrop 384 dispenser, incubated at ambient temperature for one hour (to reduce edge effects), and incubated overnight at 37° C./5% CO2. The cells were assayed 18-24 hours after seeding, at which point they were just approaching confluency in the wells. Culture medium was removed by flicking and tapping it out of the plate, and cells were loaded with 20 ul/well of 1× blue membrane potential dye in assay buffer for 30 minutes at 25° C. After 30 minutes the assay plate was placed into the FLIPR and run using a two-addition protocol. The first addition (5×, 5 ul) contained 2.5% DMSO in assay buffer. The pipetting height was set at 15 and the speed 20. The plate was read for three minutes after this addition. The second addition (2×, 25 ul) was either assay buffer or 120 mM isometrically-substituted KCl (i.e., KCl substituted for NaCl on a 1:1 molar basis). The height was 20 and the speed 25. Aspirate speeds were set at the lowest values and no hold or expel volumes applied. The plate was read for an additional three minutes after the second addition. The exported statistics were typically configured as stat1=average of 190-200 (the interval just before the first addition) and stat2=maximum of 260-maximum allowed. Subtract bias was set at 1 and negative control correction was OFF. Z′ statistics (an index of “screenability”, Z′>0.5=single-pass screen) were calculated using the following formula: Z′=1−((3σmax+3σmin)/(Iμmax−μminI)).
FIG. 32: BIOMOL compounds—primary screening data. ScreenWorks screenshots showing primary FLIPR data for BIOMOL compound screening. ShaI/KChIP 20 cells were plated at 7500 cells/well in 384-well assay plates and screened the following day. Culture medium was removed by flicking the plates and the cells were loaded with 20 ul 1× membrane potential dye per well for 0.5 hours at 25° C. A two-addition protocol was used. The first addition was 5 ul 5× control or compound in 2.5% DMSO in assay buffer (0.5% [final]) read for 180 sec, and the second addition was 25 ul 2× control or 120 mM isometrically-substituted KCl in assay buffer (0-60 mM [final]) read for an additional 180 sec. Statistics were exported using the average of reads 180-200 and the maximum of reads 260-maximum allowed. Subtract bias was set at 1 and negative control correction was OFF. Control columns ½ and 23/24 are described starting on pg. 53 of this document. Inset: Screenshot of group averages for the control and compound wells highlighted in the primary data screen.
The 3222 unique members of the BioFocus SoftFocus Ion Channel Libraries #1-4 (#SF101-04) were screened in 384-well four-point mode against ShaI/KChIP at 10 uM in a combined activator and antagonist screen. The same FLIPR protocol was used as for the BIOMOL screening and was carried out over four non-consecutive days. The following compound preparation protocol was used to prepare screening plates: Briefly, ShaI-KChIP cells were seeded in 384-well plates at 7500 cells/well in 50 ul and incubated overnight at 37° C./5% CO2. The next day, culture medium was removed, 20 ul of 1×FMP dye was added, and the cell plate was incubated at 27° C. for 30 minutes. After incubation, the cell plate was placed into the Tetra and a two-addition protocol was used. The 1st addition was 5 μl of 5× compound (50 μM) with a three minute read. […] The 2nd addition was 25 ul of 2× activation buffer (120 mM isometric KCl substitution for NaCl) and read for an additional two minutes. […]

Setting [1] is: read-out: inhibition of ShaI/KChIP response, arbitrary cutoff.

Compound `CC1ON=C(c2ccc(N(C)C)cc2)N(Cc2cccc(F)c2)C1=O` (stereo not shown) had an inhibition at 10 µM of 41.3%.

For `Cc1ccc(C2(Cc3ccncc3)C(=O)Nc3cc(F)ccc32)cc1` (stereo not shown), the inhibition at 10 µM came out at 48.5%.

As for `Cc1c(C(=O)NCc2ccc(F)cc2)sc(=O)n1Cc1ccc(Cl)c(Cl)c1`, the inhibition at 10 µM turned out to be 38%.

`CC1(Cc2cccc(F)c2)C(=O)Nc2ccc(OC(F)(F)F)cc21` (stereo not shown) displayed an inhibition at 10 µM of 33.5%.

`Cc1nc(CC2(c3sccc3C)C(=O)Nc3ccc(OC(F)(F)F)cc32)cs1` (stereo not shown) came in with an inhibition at 10 µM of 37.8%.

For `O=C1Nc2cc(F)ccc2C1(Cc1ccc(C(F)(F)F)nc1)c1cccc(F)c1` (stereo not shown), the inhibition at 10 µM was 42.7%.

`COc1ccc2c(c1)C(C)(Cc1ccc(Cl)s1)C(=O)N2` (stereo not shown): the inhibition at 10 µM is 38.3%.

As to `NC(=O)c1cccc(CC2(c3cccc(F)c3)C(=O)Nc3cc(F)ccc32)c1` (stereo not shown), the inhibition at 10 µM was determined as 54.1%.

Take `Cc1ccsc1C1(C)C(=O)Nc2ccccc21` (stereo not shown): the inhibition at 10 µM is 56.8%.

`Cc1nc(CC2(c3cccc(F)c3)C(=O)Nc3ccc(OC(F)(F)F)cc32)cs1` (stereo not shown) registered an inhibition at 10 µM of 34%.

In turn, `Cc1nc(CC2(c3cccc(F)c3)C(=O)Nc3cc(F)ccc32)cs1` (stereo not shown) registered an inhibition at 10 µM of 37.5%.

For the compound `Cc1noc(C)c1CC1(c2ccccc2)C(=O)Nc2ccc(OC(F)(F)F)cc21` (stereo not shown), the inhibition at 10 µM came to 50.4%.

As for `O=C(O)c1ccccc1Nc1cccc(C(F)(F)F)c1` [flufenamic acid, reference compound], the inhibition at 25 µM under setting [1] is at least 55%.

`CC1(Cc2ccccc2C#N)C(=O)Nc2cc(OC(F)(F)F)ccc21` (stereo not shown) registered an inhibition at 10 µM of 31.2%.

`COc1ccc(Cl)cc1C1=NOCC(=O)N1CCOc1ccc(F)cc1` came in with an inhibition at 10 µM of 38.7%.

Turning to `Cc1ccc(C2(Cc3csc(C)n3)C(=O)Nc3cccc(Cl)c32)cc1` (stereo not shown), the inhibition at 10 µM amounted to 46%.

Regarding `Cc1cccnc1C1=NOC(Cc2ccccc2)C(=O)N1CCOc1ccc(F)cc1` (stereo not shown), the inhibition at 10 µM was found to be 36.2%.

For the compound `CC1ON=C(c2cccc(Cl)c2)N(Cc2ccc3c(c2)OCO3)C1=O` (stereo not shown), the inhibition at 10 µM amounted to 31.5%.

In the case of `Cc1ccsc1C1(Cc2cccc(C#N)c2)C(=O)Nc2cc(F)ccc21` (stereo not shown), the inhibition at 10 µM is 58%.

Consider `O=C1Nc2cc(Cl)cc(Cl)c2C1(Cc1ccncc1)c1ccccc1` (stereo not shown), for which the inhibition at 10 µM was found to be 36.4%.

Regarding `NC(=O)c1cccc(CC2(c3ccccc3)C(=O)Nc3c(Cl)cccc32)c1` (stereo not shown), the inhibition at 10 µM was 33.3%.

In the case of `CCOc1ccc(C2=NOC(C)C(=O)N2Cc2cccc(F)c2)cc1` (stereo not shown), the inhibition at 10 µM stood at 52.7%.

As for `Cc1c(C(=O)NCc2ccc([N+](=O)[O-])cc2)sc(=O)n1Cc1ccc(OC(F)(F)F)cc1`, the inhibition at 10 µM stood at 30.2%.

With `Cc1nc(CC2(c3ccccc3)C(=O)Nc3ccc(OC(F)(F)F)cc32)cs1` (stereo not shown), the inhibition at 10 µM was determined as 31.4%.

For `O=C(NCc1cccc(C(F)(F)F)c1)c1cn(CCc2c[nH]c3ccccc23)c(=O)s1`, the inhibition at 10 µM is 35%.

In turn, `CC1=NOC(Cc2ccccc2)C(=O)N1CC(=O)c1ccccc1F` (stereo not shown) registered an inhibition at 10 µM of 41.6%.

As to `Cc1ccc(C2(Cc3cc(C)on3)C(=O)Nc3ccc(OC(F)(F)F)cc32)cc1` (stereo not shown), the inhibition at 10 µM was found to be 40.1%.

In turn, `CC1ON=C(Cc2ccccc2)N(CCc2c[nH]c3ccccc23)C1=O` (stereo not shown) gave an inhibition at 10 µM of 29.6%.

Consider `O=C1Nc2ccc(OC(F)(F)F)cc2C1(Cc1ccccn1)c1ccccc1` (stereo not shown), for which the inhibition at 10 µM worked out at 39.1%.

In turn, `CCC1(c2sccc2C)C(=O)Nc2ccccc21` (stereo not shown) showed an inhibition at 10 µM of 52%.

Compound `Cc1ccc(C2(Cc3c(C)noc3C)C(=O)Nc3cc(F)ccc32)cc1` (stereo not shown) came in with an inhibition at 10 µM of 35.2%.

For the compound `COc1ccc(C2(Cc3ccc(C(F)(F)F)o3)C(=O)Nc3ccc(F)cc32)c(OC)c1` (stereo not shown), the inhibition at 10 µM amounted to 60.3%.

`Cc1cc(CC2(c3cccc(F)c3)C(=O)Nc3cc(F)ccc32)no1` (stereo not shown) gave an inhibition at 10 µM of 54.9%.

On to `CC1ON=C(c2cccc(Cl)c2)N(Cc2cccc(C#N)c2)C1=O` (stereo not shown), for which the inhibition at 10 µM was 38.7%.

Turning to `Cc1c(C(=O)NCc2ccc(C(F)(F)F)cc2)sc(=O)n1CCc1c[nH]c2ccccc12`, the inhibition at 10 µM was determined as 33.3%.

In turn, `COc1ccc(C(C)=O)cc1CC1(c2ccc3c(c2)OCO3)C(=O)Nc2ccccc21` (stereo not shown) returned an inhibition at 10 µM of 35.2%.

Compound `COc1ccc(Cl)cc1CC1(C)C(=O)Nc2ccc(F)cc21` (stereo not shown) had an inhibition at 10 µM of 32%.

`COC(=O)c1ccc(CC2(c3cccc(F)c3)C(=O)Nc3cccc(Cl)c32)o1` (stereo not shown) gave an inhibition at 10 µM of 41.5%.

`CC1(Cc2ccccc2C#N)C(=O)Nc2cc(-c3ccccc3Cl)ccc21` (stereo not shown) yielded an inhibition at 10 µM of 63.3%.

Turning to `Cc1nc(CC2(c3ccccc3)C(=O)Nc3cc(F)ccc32)cs1` (stereo not shown), the inhibition at 10 µM was 42.5%.

Compound `CC1(Cc2ccccc2C#N)C(=O)Nc2ccccc21` (stereo not shown) displayed an inhibition at 10 µM of 39.7%.

Usually pIC50 stands for the negative decadic logarithm of the IC50, by convention in mol/L. `NC(N)=NC(=O)c1nc(Cl)c(N)nc1N` [Amiloride, 3,5-diamino-6-chloro-N-(diaminomethylene)pyrazine-2-carboxamide, reference compound] gave an inhibition at 25 µM of 80 to 100%. In addition, the pIC50 (duplicate plates, read-out: IC50 range) is 4.54 to 4.70. The pIC50 (standard deviation 3 uM, read-out: IC50 mean) was 4.62. For the same compound, the inhibition at 25 µM under setting [1] was at least 55%.

Compound `CC1(Cc2ccc(F)c(Cl)c2)C(=O)Nc2ccc(F)cc21` (stereo not shown) showed an inhibition at 10 µM of 52.6%.

For `Cc1noc(C)c1CC1(c2ccccc2)C(=O)Nc2c(Cl)cccc21` (stereo not shown), the inhibition at 10 µM was found to be 33%.

As to `CC1(Cc2cc(Cl)ccc2C(F)(F)F)C(=O)Nc2ccccc21` (stereo not shown), the inhibition at 10 µM stood at 32.5%.

Consider `O=C1Nc2ccc(F)cc2C1(Cc1ccccn1)c1ccc(Cl)cc1` (stereo not shown), for which the inhibition at 10 µM came out at 56.8%.

Compound `CC1ON=C(c2ccccc2F)N(Cc2cccc(F)c2)C1=O` (stereo not shown) came in with an inhibition at 10 µM of 30.2%.

`Cc1ccccc1C1(Cc2cccc(C#N)c2)C(=O)Nc2ccc(F)cc21` (stereo not shown) registered an inhibition at 10 µM of 55.5%.

In the case of `Cc1cccnc1C1=NOC(Cc2ccccc2)C(=O)N1CCc1ccccc1` (stereo not shown), the inhibition at 10 µM amounted to 33.3%.

With `Cc1ccc(C2(Cc3ccncc3)C(=O)Nc3ccc(OC(F)(F)F)cc32)cc1` (stereo not shown), the inhibition at 10 µM stood at 29.1%.

`O=C(NCc1cccc(C(F)(F)F)c1)c1cn(CCOc2ccc(F)cc2)c(=O)s1`: the inhibition at 10 µM turned out to be 30.2%.

Turning to `N#Cc1cccc(CC2(c3ccccc3)C(=O)Nc3ccc(OC(F)(F)F)cc32)c1` (stereo not shown), the inhibition at 10 µM is 32.1%.

For `Cc1ccc(C2(Cc3csc(C)n3)C(=O)Nc3cc(F)ccc32)cc1` (stereo not shown), the inhibition at 10 µM amounted to 29.3%.

Compound `Cc1ccc(C2(Cc3cccc(C(N)=O)c3)C(=O)Nc3cc(F)ccc32)cc1` (stereo not shown) came in with an inhibition at 10 µM of 57.5%.

`CC1(c2ccccc2)C(=O)Nc2ccccc21` (stereo not shown) came in with an inhibition at 10 µM of 42.6%.
